Data reported in patent publication US20240199676A1, “ANTIVIRAL COMPOUNDS AND METHODS OF MAKING AND USING THE SAME” (Gilead Sciences, Inc., priority 2022, published 2024).

System: Respiratory syncytial virus recombinant with luciferase (RSV-Luc5) in HEp-2 cells
Assay: HEp-2 RSV-Luc5 384-well Assay (EC50 RSVFLUC Hep2-384, Ex. R)
Type: cell-based
Conditions: human respiratory syncytial virus, HEp-2, 72 h, read-out: RSV Hep-2 FLuc EC50 (per Ex. R)
From the text: Example R. HEp-2 RSV-Luc5 384-well Assay (EC50 RSVFLUC Hep2-384)
HEp-2 cell line was purchased from ATCC (Manassas, VA Cat #CCL-23) and maintained in Dulbecco's […] (DMEM) (Corning, New York, NY, Cat #15-018CM) supplemented with 10% fetal bovine serum (FBS) (Hyclone, Logan, UT, Cat #SH30071-03) and 1× Penicillin-Streptonycin-L-Glutamine (Corning, New York, NY, Cat #30-009-CI). Cells were passaged 2 times per week to maintain sub-confluent densities and were used for experiments at passage 5-20. Respiratory syncytial virus recombinant with luciferase (RSV-Luc5) direct pelleted virus (≥1×107 TCID50/ml) was purchased from Microbiologics (Saint Cloud, MN). Viral replication was determined in HEp-2 cells in the following manner.
Compounds are prepared in 384-well polypropylene plates (Greiner, Monroe, NC, Cat#784201) with 8 compounds per plate in grouped replicates of 4 at 10 serially diluted concentrations (1:3).
HEp-2 cells were suspended in DMEM (supplemented with 10% FBS and 1× Penicillin-Streptomycin-L-Glutanine) and 60 uL of 4,000 cells per well were seeded into 384-well plates (Greiner, Monroe, NC, Cat #781080) using Biotek MultiFlo dispenser. […] Viral replication was then assessed by measuring luminescence signal using and Envision plate reader. […]

CC(C)C(=O)OC[C@@]1(C#N)O[C@@H](c2ccc3c(N)ncnn23)[C@H](O)[C@@H]1O [Compound 1, ((2R,3S,4R,5S)-5-(4-aminopyrrolo[2,1-f][1,2,4]triazin-7-yl)-2-cyano-3,4-dihydroxytetrahydrofuran-2-yl)methyl isobutyrate]
EC50: 10.4 µM
